Results published in US20080188502A1, “New Compounds I” (AstraZeneca AB, priority 2006, published 2008).
Where a name gives a salt, the structure may show the parent alone.

Target: T1, recombinant human GSK3β (Homo sapiens, UniProt P49841)
T1 construct: purchased Dundee University, UK
Test: GSK3β Scintillation Proximity Assay (ATP competition)
Format: biochemical
Conditions: inhibition constants calculated with Km of ATP for GSK3β of 20 μM; 1 μM ATP, 1 μM biotinylated peptide substrate
Method: Determination of ATP Competition in Scintillation Proximity GSK3β Assay.
GSK3β Scintillation Proximity Assay.
The competition experiments were carried out in duplicate with 10 different concentrations of the inhibitors in clear-bottom microtiter plates (Wallac, Finland). A biotinylated peptide substrate, Biotin-Ala-Ala-Glu-Glu-Leu-Asp-Ser-Arg-Ala-Gly-Ser(PO3H2)-Pro-Gln-Leu (AstraZeneca, Lund), was added at a final concentration of 1 μM in an assay buffer containing 1 mU recombinant human GSK3β (Dundee University, UK), 12 mM morpholinepropanesulfonic acid (MOPS), pH 7.0, 0.3 mM EDTA, 0.01% β-mercaptoethanol, 0.004% Brij 35 (a […] detergent), 0.5% glycerol and 0.5 μg BSA/25 μl. The reaction was initiated by the addition of 0.04 μCi [γ-^33P]ATP (Amersham, UK) and unlabelled ATP at a final concentration of 1 μM and assay volume of 25 μl. After incubation for 20 minutes at room temperature, each reaction was terminated by the addition of 25 μl stop solution containing 5 mM EDTA, 50 μM ATP, 0.1% Triton X-100 and 0.25 mg streptavidin coated Scintillation Proximity Assay (SPA) beads (Amersham, UK). After 6 hours the radioactivity was determined in a liquid scintillation counter (1450 MicroBeta Trilux, Wallac). The inhibition curves were analysed by non-linear regression using GraphPad Prism, USA. The Km value of ATP for GSK3β, used to calculate the inhibition constants (Ki) of the various compounds, was 20 μM.

T1 sequence (P49841 whole entry): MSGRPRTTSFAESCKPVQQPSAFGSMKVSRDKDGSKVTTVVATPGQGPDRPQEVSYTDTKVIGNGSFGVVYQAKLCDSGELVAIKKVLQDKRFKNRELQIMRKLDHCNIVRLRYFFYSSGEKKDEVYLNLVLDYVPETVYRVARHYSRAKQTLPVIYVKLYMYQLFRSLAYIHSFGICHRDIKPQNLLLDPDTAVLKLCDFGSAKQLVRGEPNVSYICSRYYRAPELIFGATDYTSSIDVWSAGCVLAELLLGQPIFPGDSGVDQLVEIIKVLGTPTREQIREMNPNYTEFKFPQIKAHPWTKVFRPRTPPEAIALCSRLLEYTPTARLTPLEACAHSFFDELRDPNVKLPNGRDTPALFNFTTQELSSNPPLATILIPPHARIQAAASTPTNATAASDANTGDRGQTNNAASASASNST

Row | Structure (SMILES) | Ki [nM]
1 | Cc1ncc(-c2nc(Nc3cnc(C(=O)N4CCCCC4)c(Cl)c3)ncc2F)n1C [Example 55, N-[5-Chloro-6-(piperidin-1-ylcarbonyl)pyridin-3-yl]-4-(1,2-dimethyl-1H-imidazol-5-yl)-5-fluoropyrimidin-2-amine hydrochloride] | 18
2 | Cc1ncc(-c2nc(Nc3ccc(C(=O)N4CCCCC4)nc3)ncc2F)n1C1CCOCC1 [Example 20, [5-[[5-Fluoro-4-[2-methyl-3-(oxan-4-yl)imidazol-4-yl]pyrimidin-2-yl]amino]pyridin-2-yl]-(1-piperidyl)methanone] | 26
3 | Cc1ncc(-c2nc(Nc3ccc(C(=O)N4CCC(c5ccc(F)cc5)CC4)nc3)ncc2F)n1C1CCOCC1 [Example 16, [5-[[5-Fluoro-4-[2-methyl-3-(oxan-4-yl)imidazol-4-yl]pyrimidin-2-yl]amino]pyridin-2-yl]-[4-(4-fluorophenyl)-1-piperidyl]methanone] | 9
4 | Cc1ncc(-c2nc(Nc3ccc(C(=O)N4CCN(C)CC4)cn3)ncc2F)n1C1CCOCC1 [Example 3, 5-Fluoro-N-{5-[(4-methylpiperazin-1-yl)carbonyl]pyridin-2-yl}-4-[2-methyl-1-(tetrahydro-2H-pyran-4-yl)-1H-imidazol-5-yl]pyrimidin-2-amine] | 661
5 | Cc1ncc(-c2nc(Nc3ccc(C(=O)NCC(C)(C)CN(C)C)nc3)ncc2F)n1C1CCOCC1 [Example 39, N-(3-Dimethylamino-2,2-dimethyl-propyl)-5-[[5-fluoro-4-[2-methyl-3-(oxan-4-yl)imidazol-4-yl]pyrimidin-2-yl]amino]pyridine-2-carboxamide] | 160
6 | CCCN1CCN(C(=O)c2ccc(Nc3ncc(F)c(-c4cnc(C)n4C4CCOCC4)n3)cn2)CC1 [Example 37, [5-[[5-Fluoro-4-[2-methyl-3-(oxan-4-yl)imidazol-4-yl]pyrimidin-2-yl]amino]pyridin-2-yl]-(4-propylpiperazin-1-yl)methanone] | 56
7 | Cc1ncc(-c2nc(Nc3cnc(C(=O)N4CCCCC4)c(Cl)c3)ncc2F)n1C1CCOCC1 [Example 54, N-[5-Chloro-6-(piperidin-1-ylcarbonyl)pyridin-3-yl]-5-fluoro-4-[2-methyl-1-(tetrahydro-2H-pyran-4-yl)-1H-imidazol-5-yl]pyrimidin-2-amine hydrocholoride, hydrochloride] | 7
8 | Cc1ncc(-c2nc(Nc3ccc(C(=O)N4CC(C)CC(C)C4)nc3)ncc2F)n1C1CCOCC1 (centres unmarked) [Example 40, (3,5-Dimethyl-1-piperidyl)-[5-[[5-fluoro-4-[2-methyl-3-(oxan-4-yl)imidazol-4-yl]pyrimidin-2-yl]amino]pyridin-2-yl]methanone] | 16
9 | Cc1ncc(-c2nc(Nc3ccc(C(=O)N4CCN(c5ccc(F)cc5)CC4)nc3)ncc2F)n1C1CCOCC1 [Example 36, [5-[[5-Fluoro-4-[2-methyl-3-(oxan-4-yl)imidazol-4-yl]pyrimidin-2-yl]amino]pyridin-2-yl]-[4-(4-fluorophenyl)piperazin-1-yl]methanone] | 10
10 | Cc1ncc(-c2nc(Nc3ccc(C(=O)N(C)C(C)C)nc3)ncc2F)n1C1CCOCC1 [Example 15, 5-[[5-Fluoro-4-[2-methyl-3-(oxan-4-yl)imidazol-4-yl]pyrimidin-2-yl]amino]-N-methyl-N-propan-2-yl-pyridine-2-carboxamide] | 43
11 | CCN1CCN(C(=O)c2ccc(Nc3ncc(F)c(-c4cnc(C)n4C4CCOCC4)n3)cn2)CC1 [Example 17, (4-Ethylpiperazin-1-yl)-[5-[[5-fluoro-4-[2-methyl-3-(oxan-4-yl)imidazol-4-yl]pyrimidin-2-yl]amino]pyridin-2-yl]methanone] | 50
12 | CCC(C)N1CCN(C(=O)c2ccc(Nc3ncc(F)c(-c4cnc(C)n4C4CCOCC4)n3)cn2)CC1 (centres unmarked) [Example 34, (4-Butan-2-ylpiperazin-1-yl)-[5-[[5-fluoro-4-[2-methyl-3-(oxan-4-yl)imidazol-4-yl]pyrimidin-2-yl]amino]pyridin-2-yl]methanone] | 85

The remaining molecules from weak to strong by Ki, led by results:

Row | Ki [nM] | Structure (SMILES)
13 | 100 | Cc1ncc(-c2nc(Nc3ccc(C(=O)N4CCN(C)CC4)nc3)ncc2F)n1C [Example 47, 4-(1,2-Dimethyl-1H-imidazol-5-yl)-5-fluoro-N-{6-[(4-methylpiperazin-1-yl)carbonyl]pyridin-3-yl}pyrimidin-2-amine]
14 | 90 | Cc1ncc(-c2nc(Nc3ccc(C(=O)N4CCN(C(C)C)CC4)nc3)ncc2F)n1C1CCOCC1 [Example 21, [5-[[5-Fluoro-4-[2-methyl-3-(oxan-4-yl)imidazol-4-yl]pyrimidin-2-yl]amino]pyridin-2-yl]-(4-propan-2-ylpiperazin-1-yl)methanone]
15 | 63 | Cc1ncc(-c2nc(Nc3ccc(C(=O)N4CCN(C)CC4)nc3)ncc2F)n1C1CCOCC1 [Example 4, 5-Fluoro-N-{6-[(4-methylpiperazin-1-yl)carbonyl]pyridin-3-yl}-4-[2-methyl-1-(tetrahydro-2H-pyran-4-yl)-1H-imidazol-5-yl]pyrimidin-2-amine]
16 | 55 | Cn1c(-c2nc(Nc3cnc(C(=O)N4CCCCC4)c(Cl)c3)ncc2F)cnc1C(F)(F)F [Example 56, N-[5-Chloro-6-(piperidin-1-ylcarbonyl)pyridin-3-yl]-5-fluoro-4-[1-methyl-2-(trifluoromethyl)-1H-imidazol-5-yl]pyrimidin-2-amine hydrochloride]
17 | 39 | Cc1ncc(-c2nc(Nc3ccc(C(=O)N4CCC4)nc3)ncc2F)n1C [Example 46, N-[6-(Azetidin-1-ylcarbonyl)pyridin-3-yl]-4-(1,2-dimethyl-1H-imidazol-5-yl)-5-fluoropyrimidin-2-amine]
18 | 39 | Cc1ncc(-c2nc(Nc3ccc(S(=O)(=O)NCC(F)(F)F)nc3)ncc2F)n1C1CCOCC1 [Example 52]
19 | 34 | Cc1ncc(-c2nc(Nc3ccc(C(=O)N4CCC(F)(F)C4)nc3)ncc2F)n1C1CCOCC1 [Example 13, (3,3-Difluoropyrrolidin-1-yl)-[5-[[5-fluoro-4-[2-methyl-3-(oxan-4-yl)imidazol-4-yl]pyrimidin-2-yl]amino]pyridin-2-yl]methanone]
20 | 33 | Cc1ncc(-c2nc(Nc3ccc(S(=O)(=O)C(C)C)nc3)ncc2F)n1C1CCOCC1 [Example 50, {5-Fluoro-4-[2-methyl-3-(tetrahydro-pyran-4-yl)-3H-imidazol-4-yl]-pyrimidin-2-yl}-[6-(propan-2-ylsulfonyl)-pyridin-3-yl]-amine]
21 | 32 | Cn1c(-c2nc(Nc3cnc(C(=O)N4CCC4)c(Cl)c3)ncc2F)cnc1C(F)(F)F [Example 45, Azetidin-1-yl-[3-chloro-5-[[5-fluoro-4-[3-methyl-2-(trifluoromethyl)imidazol-4-yl]pyrimidin-2-yl]amino]pyridin-2-yl]methanone hydrochloride]
22 | 31 | CCN(C)C(=O)c1ccc(Nc2ncc(F)c(-c3cnc(C)n3C3CCOCC3)n2)cn1 [Example 26, N-Ethyl-5-[[5-fluoro-4-[2-methyl-3-(oxan-4-yl)imidazol-4-yl]pyrimidin-2-yl]amino]-N-methyl-pyridine-2-carboxamide]
23 | 24 | CCCN(CCC)C(=O)c1ccc(Nc2ncc(F)c(-c3cnc(C)n3C3CCOCC3)n2)cn1 [Example 24, 5-[[5-Fluoro-4-[2-methyl-3-(oxan-4-yl)imidazol-4-yl]pyrimidin-2-yl]amino]-N,N-dipropyl-pyridine-2-carboxamide]
24 | 23 | CN1CCN(C(=O)c2ncc(Nc3ncc(F)c(-c4cnc(C(F)(F)F)n4C4CCOCC4)n3)cc2Cl)CC1 [Example 43, [3-Chloro-5-[[5-fluoro-4-[3-(oxan-4-yl)-2-(trifluoromethyl)imidazol-4-yl]pyrimidin-2-yl]amino]pyridin-2-yl]-(4-methylpiperazin-1-yl)methanone]
25 | 20 | Cc1ncc(-c2nc(Nc3ccc(S(=O)(=O)N(C)C)nc3)ncc2F)n1C1CCOCC1 [Example 53]
26 | 19 | O=C(c1ncc(Nc2ncc(F)c(-c3cnc(C(F)(F)F)n3C3CCOCC3)n2)cc1Cl)N1CCCCC1 [Example 57, N-[5-Chloro-6-(piperidin-1-ylcarbonyl)pyridin-3-yl]-5-fluoro-4-[1-(tetrahydro-2H-pyran-4-yl)-2-(trifluoromethyl)-1H-imidazol-5-yl]pyrimidin-2-amine hydrochloride]
27 | 19 | Cc1ncc(-c2nc(Nc3cnc(C(=O)N4CCN(C)CC4)c(Cl)c3)ncc2F)n1C [Example 49, N-[5-Chloro-6-[(4-methylpiperazin-1-yl)carbonyl]pyridin-3-yl]-4-(1,2-dimethyl-1H-imidazol-5-yl)-5-fluoropyrimidin-2-amine]
28 | 16 | CCN(Cc1ccccc1)C(=O)c1ccc(Nc2ncc(F)c(-c3cnc(C)n3C3CCOCC3)n2)cn1 [Example 33, N-Benzyl-N-ethyl-5-[[5-fluoro-4-[2-methyl-3-(oxan-4-yl)imidazol-4-yl]pyrimidin-2-yl]amino]pyridine-2-carboxamide]
29 | 11 | Cc1ncc(-c2nc(Nc3cnc(C(=O)N4CCC4)c(Cl)c3)ncc2F)n1C1CCOCC1 [Example 42, Azetidin-1-yl-[3-chloro-5-[[5-fluoro-4-[2-methyl-3-(oxan-4-yl)imidazol-4-yl]pyrimidin-2-yl]amino]pyridin-2-yl]methanone]
